“And” between values parts separate entries of the source, which are not always exact repeats. Equal values may be shown once. Read-outs that look alike come from different tables or passages of the source.
Assays:
C57BL/6N mice = experiment: Acute oxalate nephropathy (CaOx-induced AKI); type: in vivo, mouse
Description: C57BL/6N mice were procured from Charles River Laboratories (Sulzfeld, Germany) and co-housed in groups of four in filter top cages with unlimited access to food and water. Cages, nestlets, food, and water were sterilized by autoclaving before use. Mice received a single intraperitoneal (i.p.) injection of 100 mg/kg sodium oxalate (Santa Cruz Biotechnology) and 3% sodium oxalate in drinking water and kidneys were harvested after 24 h. […] Blood and kidneys were collected at sacrifice by cervical dislocation. The middle section of each kidney was fixed for 24 h in formalin to be embedded in paraffin for histological analysis. Intrarenal crystal precipitations were quantified by Pizzolato staining. The experimental procedure was approved by the Regierung von Oberbayern, München, Germany (ROB-55.2-2532.Vet_02-18-127).
The tubular injury was scored by detecting the percentage of necrotic structures, dilated tubules, casts and cellular infiltrates per HPF. To do so a grid with a raster size of 2.5% of the total image area was imposed on top of each image and the number of squares covering either of the histopathological features was counted individually or as a composite (summary score). Pizzolato’s staining visualized calcium oxalate crystals and crystal deposit formation in the kidney was evaluated the following: no deposits = 0 point; crystals in papillary tip = 1 point; crystals in cortical medullary junction = 2 points; crystals in cortex = 3 points.
A TUNEL kit (Cell death detection kit, Roche) was used to quantify the number of cells with DNA strand breaks per HPF. The green fluorescent area was measured and the number of stained cells per slide was counted.

[1] = Inhibited co-autoxidation of cumene and STY-BODIPY (radical-trapping antioxidant activity); settings: AIBN-initiated; even at 5-fold higher concentration than PMC
MAO-A = MAO-A (Rattus norvegicus, UniProt P21396); experiment: Off-target radioligand binding screen; settings: read-out: MAO-A ($): inhibition of radioligand binding
H2(h) = H2(h) (Homo sapiens, UniProt P25021); experiment: Off-target radioligand binding screen; settings: read-out: H2(h) ($): inhibition of radioligand binding
[2] = molecular target: indoleamine 2,3-dioxygenase (IDO) (Homo sapiens, UniProt P14902); experiment: IDO assay (formation of N-formyl-kynurenine from L-tryptophan); settings: read-out: IDO (h): inhibition
5-HT1A(h) = 5-HT1A(h) (Homo sapiens, UniProt P08908); experiment: Off-target radioligand binding screen; settings: read-out: 5-HT1A(h) (#): inhibition of radioligand binding
5-HT transporter (h) = 5-HT transporter (h) (Homo sapiens, UniProt P31645); experiment: Off-target radioligand binding screen; settings: read-out: 5-HT transporter (h) ($): inhibition of radioligand binding
[3] = Pharmacokinetic analysis of Nec-1f in mice (tissue PK); type: in vivo, C57BL/6 mice; settings: individual mice
[4] = 24 h after CaOx, 1.65 mg/kg Nec-1f, individual animals, 1.65 mg/kg

H2(h), sequence (P25021 whole entry): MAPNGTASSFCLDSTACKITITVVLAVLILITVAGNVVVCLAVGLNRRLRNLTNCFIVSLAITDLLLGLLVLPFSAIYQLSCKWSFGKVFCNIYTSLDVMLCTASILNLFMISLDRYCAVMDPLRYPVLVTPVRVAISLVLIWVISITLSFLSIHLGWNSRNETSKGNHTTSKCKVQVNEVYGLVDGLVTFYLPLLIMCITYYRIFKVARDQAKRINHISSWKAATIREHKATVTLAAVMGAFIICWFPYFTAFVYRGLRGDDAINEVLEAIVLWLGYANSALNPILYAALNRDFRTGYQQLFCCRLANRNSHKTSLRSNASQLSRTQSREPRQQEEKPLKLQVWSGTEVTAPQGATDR
indoleamine 2,3-dioxygenase (IDO), sequence (P14902 whole entry): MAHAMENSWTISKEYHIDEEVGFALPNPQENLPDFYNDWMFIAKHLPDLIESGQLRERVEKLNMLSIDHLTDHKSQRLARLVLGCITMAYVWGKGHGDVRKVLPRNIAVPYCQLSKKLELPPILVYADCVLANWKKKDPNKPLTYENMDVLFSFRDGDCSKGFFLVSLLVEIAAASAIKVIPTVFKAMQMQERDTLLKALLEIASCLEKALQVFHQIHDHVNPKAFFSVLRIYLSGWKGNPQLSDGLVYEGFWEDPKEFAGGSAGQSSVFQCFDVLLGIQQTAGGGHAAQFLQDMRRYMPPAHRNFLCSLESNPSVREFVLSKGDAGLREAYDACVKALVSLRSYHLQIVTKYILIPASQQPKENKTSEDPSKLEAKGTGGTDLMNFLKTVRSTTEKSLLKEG
MAO-A, sequence (P21396 whole entry): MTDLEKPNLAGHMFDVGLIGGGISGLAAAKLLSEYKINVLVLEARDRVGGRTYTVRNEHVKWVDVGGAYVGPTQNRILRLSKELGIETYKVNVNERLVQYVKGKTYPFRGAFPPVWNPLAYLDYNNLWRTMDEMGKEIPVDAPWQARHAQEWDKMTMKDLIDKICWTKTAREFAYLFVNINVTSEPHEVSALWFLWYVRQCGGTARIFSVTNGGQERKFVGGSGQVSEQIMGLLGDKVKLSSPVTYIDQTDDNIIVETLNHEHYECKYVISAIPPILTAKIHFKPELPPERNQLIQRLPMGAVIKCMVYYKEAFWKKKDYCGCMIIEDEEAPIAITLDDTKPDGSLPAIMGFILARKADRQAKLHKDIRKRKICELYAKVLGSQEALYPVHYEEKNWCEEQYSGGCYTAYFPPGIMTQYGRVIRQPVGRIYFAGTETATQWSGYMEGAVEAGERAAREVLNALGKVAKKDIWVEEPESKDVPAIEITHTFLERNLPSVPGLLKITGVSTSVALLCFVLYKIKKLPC
5-HT transporter (h), sequence (P31645 whole entry): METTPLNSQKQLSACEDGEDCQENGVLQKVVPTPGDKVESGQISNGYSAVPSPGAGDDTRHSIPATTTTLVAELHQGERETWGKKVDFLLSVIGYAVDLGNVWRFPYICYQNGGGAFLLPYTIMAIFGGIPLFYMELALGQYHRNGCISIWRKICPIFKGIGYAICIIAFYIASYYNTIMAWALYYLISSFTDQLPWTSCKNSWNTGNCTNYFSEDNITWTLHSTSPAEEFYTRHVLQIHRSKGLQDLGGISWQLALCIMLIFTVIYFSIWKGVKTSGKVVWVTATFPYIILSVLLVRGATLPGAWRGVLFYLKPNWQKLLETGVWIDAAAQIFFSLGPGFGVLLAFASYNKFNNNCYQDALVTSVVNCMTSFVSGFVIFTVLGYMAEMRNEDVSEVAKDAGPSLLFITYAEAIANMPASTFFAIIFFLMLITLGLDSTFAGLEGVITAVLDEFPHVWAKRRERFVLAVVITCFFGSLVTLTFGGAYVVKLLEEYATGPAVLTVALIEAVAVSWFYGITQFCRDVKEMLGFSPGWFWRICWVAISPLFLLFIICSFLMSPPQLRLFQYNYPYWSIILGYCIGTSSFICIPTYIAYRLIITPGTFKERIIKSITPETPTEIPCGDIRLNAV
5-HT1A(h), sequence (P08908 whole entry): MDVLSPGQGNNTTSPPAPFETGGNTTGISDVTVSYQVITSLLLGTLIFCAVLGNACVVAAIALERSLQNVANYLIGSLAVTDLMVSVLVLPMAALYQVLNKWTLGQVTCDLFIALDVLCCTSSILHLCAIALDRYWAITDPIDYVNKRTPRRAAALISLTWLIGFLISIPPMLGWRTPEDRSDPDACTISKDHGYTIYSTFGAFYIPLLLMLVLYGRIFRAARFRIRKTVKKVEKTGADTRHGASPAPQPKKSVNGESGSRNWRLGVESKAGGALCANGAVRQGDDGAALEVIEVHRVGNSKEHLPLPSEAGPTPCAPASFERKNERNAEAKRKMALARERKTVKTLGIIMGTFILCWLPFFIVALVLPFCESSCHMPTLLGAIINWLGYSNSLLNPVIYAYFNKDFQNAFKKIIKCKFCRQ

With `CN1C(=O)C(Cc2c[nH]c3c(Cl)cccc23)NC1=S` (stereo not shown) [Nec-1f] as the compound, how does the “CaOx crystal deposition vs vehicle” value (C57BL/6N mice; 1.65 mg/kg body weight) read?
Its value is “comparable in both groups”.

And the “Tubular injury vs vehicle” value (C57BL/6N mice; 1.65 mg/kg body weight)?
Its value is “reduced tubular injury”.

What about the Serum creatinine (C57BL/6N mice; [4]) of the same compound?
The Serum creatinine was 75 µmol/L and 84 µmol/L and 73 µmol/L and 71 µmol/L and 67 µmol/L and 78 µmol/L and 89 µmol/L and 69 µmol/L.

What about the Serum urea (C57BL/6N mice; [4]) of the same compound?
Its Serum urea is 70.6 mmol/L and 52 mmol/L and 57.6 mmol/L and 47.8 mmol/L and 51.8 mmol/L and 64.8 mmol/L and 59.8 mmol/L.

And the “Number of TUNEL-positive cells vs vehicle” value (C57BL/6N mice; CaOx)?
The value was “significantly decreased”.

What about the “Serum creatinine vs vehicle” value (C57BL/6N mice; CaOx, 1.65 mg/kg) of the same compound?
The value was “lower concentrations”.

And the “Serum urea vs vehicle” value (C57BL/6N mice; CaOx, 1.65 mg/kg)?
The value was “lower concentrations”.

And the TUNEL (C57BL/6N mice; kidneys 24 h after onset of CaOx treatment, Nec-1f, individual animals)?
Its TUNEL is 12.5 positive cells per HPF and 23.5 positive cells per HPF and 14 positive cells per HPF and 17 positive cells per HPF and 9.5 positive cells per HPF and 16 positive cells per HPF and 15 positive cells per HPF.

What about the “Tubular injury (PAS)” value (C57BL/6N mice; sodium oxalate, 1.65 mg/kg Nec-1f, individual animals, 1.65 mg/kg) of the same compound?
The value was 5.4 % area per HPF and 19.2 % area per HPF and 9 % area per HPF and 17.2 % area per HPF and 7.8 % area per HPF and 11.7 % area per HPF and 12.7 % area per HPF.

And the “Radical-trapping activity in cumene/STY-BODIPY co-autoxidation” value [1]?
Its value is “no activity”.

And the inhibition at 10 µM (MAO-A)?
Its inhibition at 10 µM is 44.4%.

And the inhibition at 10 µM (H2(h))?
The inhibition at 10 µM was -27.4%.

And the inhibition at 10 µM [2]?
The inhibition at 10 µM was 2%.

And the inhibition at 10 µM (5-HT1A(h))?
Its inhibition at 10 µM is 9.1%.

And the inhibition at 10 µM (5-HT transporter (h))?
Its inhibition at 10 µM is -5.9%.

What about the concentration in blood ([3]; sample collection 240 min) of the same compound?
Its concentration in blood is 0 ng/mL.

What about the concentration in blood ([3]; sample collection 360 min) of the same compound?
The concentration in blood was 0 ng/mL.

And the concentration in blood ([3]; sample collection 480 min)?
The concentration in blood was 0 ng/mL.

What about the concentration in blood ([3]; sample collection 1440 min) of the same compound?
Its concentration in blood is 0 ng/mL.

And the concentration in brain ([3]; brain, sample collection 240 min)?
The concentration in brain was 0 ng/mL.

And the concentration in brain ([3]; brain, sample collection 360 min)?
Its concentration in brain is 0 ng/mL.

What about the concentration in brain ([3]; brain, sample collection 480 min) of the same compound?
Its concentration in brain is 0 ng/mL.

What about the concentration in brain ([3]; brain, sample collection 1440 min) of the same compound?
The concentration in brain was 0 ng/mL.

What about the concentration in heart ([3]; heart, sample collection 0 min) of the same compound?
Its concentration in heart is 0 ng/mL.

What about the concentration in heart ([3]; heart, sample collection 240 min) of the same compound?
Its concentration in heart is 0 ng/mL.

What about the concentration in heart ([3]; heart, sample collection 360 min) of the same compound?
Its concentration in heart is 0 ng/mL.

And the concentration in heart ([3]; heart, sample collection 480 min)?
The concentration in heart was 0 ng/mL.

And the concentration in heart ([3]; heart, sample collection 1440 min)?
Its concentration in heart is 0 ng/mL.

And the concentration in kidney ([3]; sample collection 0 min)?
The concentration in kidney was 0 ng/mL.

What about the concentration in kidney ([3]; sample collection 240 min) of the same compound?
The concentration in kidney was 0 ng/mL.

What about the concentration in kidney ([3]; sample collection 360 min) of the same compound?
Its concentration in kidney is 0 ng/mL.

And the concentration in kidney ([3]; sample collection 480 min)?
Its concentration in kidney is 0 ng/mL.

What about the concentration in kidney ([3]; sample collection 1440 min) of the same compound?
The concentration in kidney was 0 ng/mL.

What about the concentration in liver ([3]; sample collection 0 min) of the same compound?
Its concentration in liver is 0 ng/mL.

What about the concentration in liver ([3]; sample collection 240 min) of the same compound?
The concentration in liver was 0 ng/mL.

And the concentration in liver ([3]; sample collection 360 min)?
Its concentration in liver is 0 ng/mL.

What about the concentration in liver ([3]; sample collection 480 min) of the same compound?
Its concentration in liver is 0 ng/mL.

What about the concentration in liver ([3]; sample collection 1440 min) of the same compound?
The concentration in liver was 0 ng/mL.

And the concentration in lung ([3]; sample collection 0 min)?
Its concentration in lung is 0 ng/mL.

And the concentration in lung ([3]; sample collection 240 min)?
Its concentration in lung is 0 ng/mL.

And the concentration in lung ([3]; sample collection 360 min)?
The concentration in lung was 0 ng/mL.

What about the concentration in lung ([3]; sample collection 480 min) of the same compound?
Its concentration in lung is 0 ng/mL.

And the concentration in lung ([3]; sample collection 1440 min)?
The concentration in lung was 0 ng/mL.

What about the concentration at 240 min ([3]; male, C57BL/6, mouse, brain, intraperitoneal, 2 mg/kg, brain, sample collection 240 min, read-out: concentration in brain) of the same compound?
The concentration at 240 min was 0 ng/mL.

What about the concentration at 360 min ([3]; male, C57BL/6, mouse, brain, intraperitoneal, 2 mg/kg, brain, sample collection 360 min, read-out: concentration in brain) of the same compound?
The concentration at 360 min was 0 ng/mL.

What about the concentration at 480 min ([3]; male, C57BL/6, mouse, brain, intraperitoneal, 2 mg/kg, brain, sample collection 480 min, read-out: concentration in brain) of the same compound?
Its concentration at 480 min is 0 ng/mL.

And the concentration at 0 min ([3]; male, C57BL/6, mouse, brain, intraperitoneal, 2 mg/ml, brain, sample collection 0 min, read-out: concentration in brain)?
The concentration at 0 min was 0 ng/mL.

And the concentration at 5 min ([3]; male, C57BL/6, mouse, brain, intraperitoneal, 2 mg/ml, brain, sample collection 5 min, read-out: concentration in brain)?
Its concentration at 5 min is 11 ng/mL.

And the concentration at 15 min ([3]; male, C57BL/6, mouse, brain, intraperitoneal, 2 mg/ml, brain, sample collection 15 min, read-out: concentration in brain)?
Its concentration at 15 min is 23 ng/mL.

And the concentration at 120 min ([3]; male, C57BL/6, mouse, brain, intraperitoneal, 2 mg/ml, brain, sample collection 120 min, read-out: concentration in brain)?
Its concentration at 120 min is 11 ng/mL.

What about the concentration at 1440 min ([3]; male, C57BL/6, mouse, brain, intraperitoneal, 2 mg/ml, brain, sample collection 1440 min, read-out: concentration in brain) of the same compound?
The concentration at 1440 min was 0 ng/mL.

What about the concentration at 240 min ([3]; male, C57BL/6, mouse, heart, intraperitoneal, 2 mg/kg, heart, sample collection 240 min, read-out: concentration in heart) of the same compound?
Its concentration at 240 min is 0 ng/mL.

What about the concentration at 360 min ([3]; male, C57BL/6, mouse, heart, intraperitoneal, 2 mg/kg, heart, sample collection 360 min, read-out: concentration in heart) of the same compound?
The concentration at 360 min was 0 ng/mL.

What about the concentration at 480 min ([3]; male, C57BL/6, mouse, heart, intraperitoneal, 2 mg/kg, heart, sample collection 480 min, read-out: concentration in heart) of the same compound?
Its concentration at 480 min is 0 ng/mL.

And the concentration at 1440 min ([3]; male, C57BL/6, mouse, heart, intraperitoneal, 2 mg/kg, heart, sample collection 1440 min, read-out: concentration in heart)?
The concentration at 1440 min was 0 ng/mL.
